Measurements reported in patent US20260022142A1, “MACROCYCLIC IMMUNOMODULATORS” (Bristol-Myers Squibb Company, priority 2022, published 2026).
Numbered stars: 1 amine (or outer) side, 2 acyl side, 3 side chain; on linkers, the order of the positions; unused ones are H or OH. Bridge positions count the residues as written; N and C are the ends. Square brackets hold non-standard residues; d marks the D form. Peptide text beside a SMILES is read from it. * marks the point of attachment. ξ: configuration not given here. Phe(4-COOH) = N[C@@H](Cc1ccc(C(=O)O)cc1)C(=O)O; Bip = N[C@@H](Cc1ccc(-c2ccccc2)cc1)C(=O)O; NH(CH2)16COOH = O=C(O)CCCCCCCCCCCCCCCCN*; Phe(3-CN) = N#Cc1cccc(C[C@H](N)C(=O)O)c1; Phe(3-Me) = Cc1cccc(C[C@H](N)C(=O)O)c1; γGlu = O=C(O)[C@H](CCC(=O)[*:2])N[*:1]; βAsp = O=C(O)[C@H](CC(=O)[*:2])N[*:1]; X19 = O=C([C@@H]1CC(O)CN1[*:1])[*:2]; Val(3-OH) = CC(C)(O)[C@H](N)C(=O)O; 4Pal = N[C@@H](Cc1ccncc1)C(=O)O; Cha = N[C@@H](CC1CCCCC1)C(=O)O; NMeN = CN[C@@H](CC(N)=O)C(=O)O; Thr(3ξ) = CC(O)[C@H](N)C(=O)O; NMeNle = CCCC[C@H](NC)C(=O)O; 12Ado = NCCCCCCCCCCCC(=O)O; 3Abz = Nc1cccc(C(=O)O)c1; Carboxymethyl = O=C(O)C*; Orn = NCCC[C@H](N)C(=O)O; Pra = C#CC[C@H](N)C(=O)O; Aun = NCCCCCCCCCCC(=O)O; Dab = NCC[C@H](N)C(=O)O; Dap = NC[C@H](N)C(=O)O; AEEA = NCCOCCOCC(=O)O

biological target: T1, PD-1/PD-L1 interaction (PE-labeled human PD-L1-Ig binding to Jurkat cell line over-expressing human PD-1) (Homo sapiens, UniProt Q15116); test: Jurkat-PD-1 Cell Binding High-Content Screening Assay (CBA); assay type: cell-based; conditions: Jurkat cell line over-expressing human PD-1; PE-labeled PD-L1-Ig 20 nM final; read-out: Jurkat hPD1-PDL1 IC50
T1 construct: expressed in transfected cells; host or cells: Jurkat
T1 sequence (Q15116 25-288): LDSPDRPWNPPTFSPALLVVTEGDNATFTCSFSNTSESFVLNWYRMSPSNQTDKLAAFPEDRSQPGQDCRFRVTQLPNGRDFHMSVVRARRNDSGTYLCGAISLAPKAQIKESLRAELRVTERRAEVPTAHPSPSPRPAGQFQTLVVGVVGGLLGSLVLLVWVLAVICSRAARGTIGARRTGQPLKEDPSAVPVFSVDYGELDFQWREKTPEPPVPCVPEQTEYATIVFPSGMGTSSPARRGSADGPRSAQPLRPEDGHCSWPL
Procedure, shortened: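 Read-out is high-content imaging of cell-bound phycoerythrin-tagged PD-L1-Ig on fixed, Hoechst-counterstained Jurkat cells that over-express human PD-1. Compound exposure lasts 2 h at 37° C before the labeled ligand (20 nM final) is added for a further hour.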

Row | IC50 [nM] | SMILES
1 | 34.9 | CCCC[C@H]1C(=O)N[C@@H](Cc2ccc(OCC(=O)O)cc2)C(=O)N[C@@H](CC(=O)O)C(=O)N[C@@H](Cc2cccc(C)c2)C(=O)N[C@@H](Cc2ccc(OCC(=O)O)cc2)C(=O)N[C@@H](Cc2ccc(-c3ccccc3)cc2)C(=O)N[C@@H](Cc2ccc(OCC(=O)O)cc2)C(=O)N[C@@H](CCCN)C(=O)N[C@H](CC(C)C)C(=O)N[C@@H](CCN)C(=O)N[C@@H](CC2CCCCC2)C(=O)N[C@@H](C(C)(C)O)C(=O)N[C@@H](CO)C(=O)N[C@H](C(=O)N[C@@H](CCN)C(=O)NCCCCCCCCCCC(=O)O)CSCC(=O)N1C [Compound 3635] ({CH2CO}-[NMeNle]Y(Carboxymethyl)D[Phe(3-Me)]Y(Carboxymethyl)[Bip]Y(Carboxymethyl)[Orn][dL][Dab][Cha][Val(3-OH)]SC[Dab][Aun]-OH; thioether N-14)
2 | 15.1 | C#CC[C@H](NC(=O)COCCOCCNC(=O)[C@H](CCN)NC(=O)[C@@H]1CSCC(=O)N[C@@H](Cc2ccncc2)C(=O)N[C@@H](Cc2ccc(OCC(=O)O)cc2)C(=O)N[C@@H](CC(=O)O)C(=O)N[C@@H](Cc2c[nH]c3ccccc23)C(=O)N[C@@H](C(C)C)C(=O)N[C@@H](Cc2ccc(-c3ccccc3)cc2)C(=O)N[C@@H]([C@@H](C)CC)C(=O)N[C@@H](CCCN)C(=O)N[C@H](CC(C)C)C(=O)N[C@@H](CCN)C(=O)N[C@@H](CC(C)C)C(=O)N[C@@H](C(C)C)C(=O)N[C@@H]([C@@H](C)O)C(=O)N1)C(=O)N[C@@H](Cc1c[nH]cn1)C(=O)NCCCCCCCCCCC(=O)O [Compound 1198] ({CH2CO}-[4Pal]Y(Carboxymethyl)DWV[Bip]I[Orn][dL][Dab]LVTC[Dab][AEEA][Pra]H[Aun]-OH; thioether N-14)
3 | 18.4 | Cc1cccc(C[C@@H]2NC(=O)[C@H](CC(=O)O)NC(=O)[C@H](Cc3ccc(OCC(=O)O)cc3)NC(=O)[C@H](CN)NC(=O)CSC[C@@H](C(=O)N[C@@H](CCN)C(=O)NCCCCCCCCCCC(=O)O)NC(=O)[C@H]([C@@H](C)O)NC(=O)[C@H](C(C)C)NC(=O)[C@H](CC3CCCCC3)NC(=O)[C@H](CCN)NC(=O)[C@@H](CC(C)C)NC(=O)[C@H](CCCN)NC(=O)[C@H](Cc3ccc(O)cc3)NC(=O)[C@H](Cc3ccc(-c4ccccc4)cc3)NC(=O)[C@H](Cc3ccc(OCC(=O)O)cc3)NC2=O)c1 [Compound 2090] ({CH2CO}-[Dap]Y(Carboxymethyl)D[Phe(3-Me)]Y(Carboxymethyl)[Bip]Y[Orn][dL][Dab][Cha]VTC[Dab][Aun]-OH; thioether N-14)
4 | 411 | CC(C)C[C@H]1NC(=O)[C@H](CCCN)NC(=O)[C@H](C(C)C)NC(=O)[C@H](Cc2ccc(-c3ccccc3)cc2)NC(=O)[C@H](C(C)C)NC(=O)[C@H](Cc2c[nH]c3ccccc23)NC(=O)[C@H](CC(=O)O)NC(=O)[C@H](Cc2c[nH]cn2)NC(=O)[C@H](CCCNC(=N)N)NC(=O)CSC[C@@H](C(=O)N[C@@H](CCN)C(=O)NCCCCCCCCCCC(=O)O)NC(=O)[C@@H]2CC(O)CN2C(=O)[C@H](C(C)C)NC(=O)[C@H](CC2CCCCC2)NC(=O)[C@H](CCN)NC1=O (stereo partly drawn) [Compound 3275] ({CH2CO}-RHDWV[Bip]V[Orn][dL][Dab][Cha]V[X19]C[Dab][Aun]-OH; thioether N-14)
5 | 14.8 | Cc1cccc(C[C@@H]2NC(=O)[C@H](CC(=O)O)NC(=O)[C@H](Cc3ccc(OCC(=O)O)cc3)NC(=O)[C@H](CN)NC(=O)CSC[C@@H](C(=O)N[C@@H](CCCN)C(=O)NCCCCCCCCCCC(=O)O)NC(=O)[C@H]([C@@H](C)O)NC(=O)[C@H](C(C)C)NC(=O)[C@H](CC3CCCCC3)NC(=O)[C@H](CCN)NC(=O)[C@@H](CC(C)C)NC(=O)[C@H](CCN)NC(=O)[C@H](Cc3ccc(OCC(=O)O)cc3)NC(=O)[C@H](Cc3ccc(-c4ccccc4)cc3)NC(=O)[C@H](Cc3ccc(O)cc3)NC2=O)c1 [Compound 2088] ({CH2CO}-[Dap]Y(Carboxymethyl)D[Phe(3-Me)]Y[Bip]Y(Carboxymethyl)[Dab][dL][Dab][Cha]VTC[Orn][Aun]-OH; thioether N-14)
6 | 39.9 | CC(C)C[C@H]1NC(=O)[C@H](CCCN)NC(=O)[C@H](Cc2ccc(O)cc2)NC(=O)[C@H](Cc2ccc(-c3ccccc3)cc2)NC(=O)[C@H](Cc2ccc(O)cc2)NC(=O)[C@H](Cc2c[nH]c3ccccc23)NC(=O)[C@H](CC(=O)O)NC(=O)[C@H](Cc2ccc(OCC(=O)O)cc2)NC(=O)[C@H](CN)NC(=O)CSC[C@@H](C(=O)N[C@@H](CCN)C(=O)NCCOCCOCC(=O)NCCCCCCCCCCC(=O)O)NC(=O)[C@H](CCCCN)NC(=O)[C@H](Cc2ccc(O)cc2)NC(=O)[C@H](CC2CCCCC2)NC(=O)[C@H](CCN)NC1=O [Compound 2503] ({CH2CO}-[Dap]Y(Carboxymethyl)DWY[Bip]Y[Orn][dL][Dab][Cha]YKC[Dab][AEEA][Aun]-OH; thioether N-14)
7 | 11.5 | CC(C)C[C@H]1NC(=O)[C@H](CCCN)NC(=O)[C@H](C(C)C)NC(=O)[C@H](Cc2ccc(-c3ccccc3)cc2)NC(=O)[C@H](C(C)C)NC(=O)[C@H](Cc2c[nH]c3ccccc23)NC(=O)[C@H](CC(=O)O)NC(=O)[C@H](Cc2ccc(C(=O)O)cc2)NC(=O)[C@H](Cc2ccc(OCC(=O)O)cc2)NC(=O)CSC[C@@H](C(=O)NCCOCCOCC(=O)N[C@@H](CC(=O)NCCCCCCCCCCCC(=O)O)C(=O)O)NC(=O)[C@H](C(C)O)NC(=O)[C@H](C(C)C)NC(=O)[C@H](CC2CCCCC2)NC(=O)[C@H](CCN)NC1=O (stereo partly drawn) [Compound 3042] ({CH2CO}-Y(Carboxymethyl)[Phe(4-COOH)]DWV[Bip]V[Orn][dL][Dab][Cha]V[Thr(3ξ)]C[AEEA][βAsp][12Ado]-OH; thioether N-14)
8 | 8.5 | Cc1cccc(C[C@@H]2NC(=O)[C@H](CC(=O)O)NC(=O)[C@H](Cc3ccc(OCC(=O)O)cc3)NC(=O)[C@H](CN)NC(=O)CSC[C@@H](C(=O)N[C@@H](CCN)C(=O)NCCOCCOCC(=O)NCCCCCCCCCCC(=O)O)NC(=O)[C@H](CCCN)NC(=O)[C@H](C(C)C)NC(=O)[C@H](CC3CCCCC3)NC(=O)[C@H](CCN)NC(=O)[C@@H](CC(C)C)NC(=O)[C@H](CCCN)NC(=O)[C@H](Cc3ccc(O)cc3)NC(=O)[C@H](Cc3ccc(-c4ccccc4)cc3)NC(=O)[C@H](Cc3cccc(C#N)c3)NC2=O)c1 [Compound 2072] ({CH2CO}-[Dap]Y(Carboxymethyl)D[Phe(3-Me)][Phe(3-CN)][Bip]Y[Orn][dL][Dab][Cha]V[Orn]C[Dab][AEEA][Aun]-OH; thioether N-14)
9 | 66.1 | CC(C)C[C@H]1NC(=O)[C@H](CCCN)NC(=O)[C@H](C(C)C)NC(=O)[C@H](Cc2ccc(-c3ccccc3)cc2)NC(=O)[C@H](C(C)C)NC(=O)[C@H](Cc2c[nH]c3ccccc23)NC(=O)[C@H](CC(=O)O)NC(=O)[C@H](Cc2ccc(OCC(=O)O)cc2)NC(=O)[C@H](CCCNC(=N)N)NC(=O)CSC[C@@H](C(=O)N(C)[C@@H](CC(N)=O)C(=O)NCCCCCCCCCCC(=O)O)NC(=O)[C@H](CO)NC(=O)[C@H](C(C)C)NC(=O)[C@H](CC2CCCCC2)NC(=O)[C@H](CCN)NC1=O [Compound 3438] ({CH2CO}-RY(Carboxymethyl)DWV[Bip]V[Orn][dL][Dab][Cha]VSC[NMeN][Aun]-OH; thioether N-14)
10 | 307 | CC(C)C[C@@H]1NC(=O)[C@H](Cc2c[nH]c3ccccc23)NC(=O)[C@H](CC(=O)O)NC(=O)[C@H](Cc2ccncc2)NC(=O)[C@H](Cc2ccc(OCC(=O)O)cc2)NC(=O)CSC[C@@H](C(=O)Nc2cccc(C(=O)NCCCCCCCCCCC(=O)O)c2)NC(=O)[C@H](CCN)NC(=O)[C@H](C(C)C)NC(=O)[C@H](CC2CCCCC2)NC(=O)[C@H](CCN)NC(=O)[C@@H](CC(C)C)NC(=O)[C@H](CCCN)NC(=O)[C@H](C(C)C)NC(=O)[C@H](Cc2ccc(-c3ccccc3)cc2)NC1=O [Compound 1228] ({CH2CO}-Y(Carboxymethyl)[4Pal]DWL[Bip]V[Orn][dL][Dab][Cha]V[Dab]C[3Abz][Aun]-OH; thioether N-14)
11 | 11.7 | CC(C)C[C@H]1NC(=O)[C@H](CCCN)NC(=O)[C@H](C(C)C)NC(=O)[C@H](Cc2ccc(-c3ccccc3)cc2)NC(=O)[C@H](C(C)C)NC(=O)[C@H](Cc2c[nH]c3ccccc23)NC(=O)[C@H](CC(=O)O)NC(=O)[C@H](Cc2ccc(OCC(=O)O)cc2)NC(=O)[C@H](CCCNC(=N)N)NC(=O)CSC[C@@H](C(=O)NCC(=O)NCCOCCOCC(=O)N[C@@H](CCCN)C(=O)NCCCCCCCCCCC(=O)O)NC(=O)[C@H](CCN)NC(=O)[C@H](C(C)C)NC(=O)[C@H](CC2CCCCC2)NC(=O)[C@H](CCN)NC1=O [Compound 3241] ({CH2CO}-RY(Carboxymethyl)DWV[Bip]V[Orn][dL][Dab][Cha]V[Dab]CG[AEEA][Orn][Aun]-OH; thioether N-14)
12 | 45.7 | Cc1cccc(C[C@@H]2NC(=O)[C@H](CC(=O)O)NC(=O)[C@H](Cc3ccc(OCC(=O)O)cc3)NC(=O)[C@H](C)NC(=O)CSC[C@@H](C(=O)N[C@@H](CCN)C(=O)NCCOCCOCC(=O)NCCOCCOCC(=O)N[C@@H](CCC(=O)N[C@@H](CCC(=O)NCCCCCCCCCCCCCCCCC(=O)O)C(=O)O)C(=O)O)NC(=O)[C@H](Cc3c[nH]cn3)NC(=O)[C@H](C(C)(C)O)NC(=O)[C@H](CC3CCCCC3)NC(=O)[C@H](CCN)NC(=O)[C@@H](CC(C)C)NC(=O)[C@H](CCCN)NC(=O)[C@H](Cc3ccc(OCC(=O)O)cc3)NC(=O)[C@H](Cc3ccc(-c4ccccc4)cc3)NC(=O)[C@H](Cc3ccc(OCC(=O)O)cc3)NC2=O)c1 [Compound 3871] ({CH2CO}-AY(Carboxymethyl)D[Phe(3-Me)]Y(Carboxymethyl)[Bip]Y(Carboxymethyl)[Orn][dL][Dab][Cha][Val(3-OH)]HC[Dab][AEEA][AEEA][γGlu][γGlu]-{NH(CH2)16COOH}; thioether N-14)
